{"source": "paper PMC4494927", "about": "“Discovery of a small molecule targeting SET-PP2A interaction to overcome BCR-ABLT315I mutation of chronic myeloid leukemia” (Oncotarget, 2015)", "molecules": {"B1": {"name": "ApoE-mimetic peptide COG112 (peptide)", "peptide": "Ac-LRVRLASHLRKLRKRLL-NH2", "notes": "source: synthetic peptide (ChinaPeptides Co., Ltd, > 95% purity)"}}, "key": {"BCR-ABL": {"system": "BCR-ABL", "test": "Western blot of BCR-ABL expression in K562 cells", "format": "cell-based, human", "description": "Protein samples (40 μg) were resolved on SDS-PAGE gels, transferred onto PVDF membranes (Millipore) and incubated overnight with primary antibodies to β-tubulin, BCR-ABL, p-BCR-ABL, SET, PP2Ac and p-PP2Ac. The membranes were incubated with horseradish peroxidase (HRP)-conjugated secondary antibody for 1 h, and the bands were visualized using an ECL detection kit following the manufacturer's instructions. For immunoprecipitation, cells were lysed in 20 mM Tris-HCl (pH 7.0), 150 mM NaCl, 1 mM EDTA, 1 mM MgCl and 0.5% NP-40 supplemented with a cocktail of protease and phosphatase inhibitors (Roche). Lysates (200 μg) were incubated with primary antibodies (1 μg) against SET or PP2Ac at 4 °C for 10 h, protein A/G plus agarose beads were then added for immunoprecipitation overnight at 4 °C. After wash, the immunoprecipitated proteins were separated by SDS-PAGE and analyzed by Western blotting."}, "K562 cells": {"system": "K562 cells", "test": "Cytotoxicity assay (CellTiter-Glo)", "format": "cell-based, human", "description": "Twenty types of tumor cell lines were seeded at 4000 cells per well in 96-well plates. […] Cell viability was measured with the CellTiter-Glo Luminescent Cell Viability Assay (Promega) according to the manufacturer's instructions. Luminescence was measured using an EnVision Multilabel Plate Reader (Perkin-Elmer). The cytotoxicity of TGI1002 was expressed as the percentage of luminescence relative to that of untreated cells."}, "[1]": {"molecular_target": "T1, recombinant human SET protein (Homo sapiens, UniProt Q01105)", "T1 construct": "Genes encoding the full length of human SET (GenBank No.: AAA60318.1) was synthesized; made in house; host or cells: E. coli (pET-21a)", "T1 sequence (Q01105 1-277 isoform Q01105-2)": "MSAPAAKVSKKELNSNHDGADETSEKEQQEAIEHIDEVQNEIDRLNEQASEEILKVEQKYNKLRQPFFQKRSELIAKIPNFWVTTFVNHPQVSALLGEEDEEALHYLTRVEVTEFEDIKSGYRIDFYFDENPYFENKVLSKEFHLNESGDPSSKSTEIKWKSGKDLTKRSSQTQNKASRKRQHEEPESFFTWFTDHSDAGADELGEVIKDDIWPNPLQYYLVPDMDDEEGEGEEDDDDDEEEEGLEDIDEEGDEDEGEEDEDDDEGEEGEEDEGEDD", "test": "Microscale thermophoresis (MST) binding to NT647-labeled SET", "settings": "15 μM NT647-labeled SET, PBS pH 8.0, 25 °C", "description": "Thermophoresis analysis was performed during 30 s on a NanoTemper Monolith NT.115 instrument (20% LED, 40% MST power) at 25 °C."}, "BaF3-p210^T315I cells": {"system": "BaF3-p210^T315I cells", "test": "Survival study, intravenously injected tumor cells", "format": "in vivo, BALB/c mice", "settings": "vehicle 25.5 days", "description": "In survival study, BaF3-p210^T315I cells were injected into the tail vein of BALB/c mice (100 μL of a 1 × 10^7 cells suspension in serum free medium). […] Moribund animals were sacrificed as per institutional and national guidelines. Survival data were analyzed by the Kaplan Meier method and compared using the log-rank test."}, "PP2A": {"system": "PP2A", "test": "PP2Ac immunoprecipitation phosphatase assay in K562 cells", "format": "cell-based, human", "description": "PP2A assay from whole cell lysates was carried out using commercial PP2Ac immunoprecipitation phosphatase assay kit (Millipore). Briefly, 200 μg protein lysates prepared as described above, 4 μg PP2Ac-specific antibody, and 40 μL protein A-agarose were added to TBS buffer (20 mM Tris-HCl, 150 mM NaCl, and 0.1% Tween 20) to a final volume of 500 μL and immunoprecipitation was carried out at 4 °C for 2 h. The immunoprecipitates were used in the phosphatase reaction following the manufacturer's protocol."}, "[2]": {"system": "BaF3-p210^T315I tumor xenografts", "test": "In vivo anti-tumor efficacy, subcutaneous xenograft", "set-up": "species or system BALB/c mice", "settings": "TGI1002 30, 45, 60 mg/kg; imatinib, ponatinib 10 mg/kg; i.p. daily", "description": "BABL/c male mice from SLRC Experimental Animal Center were bred under pathogen-free conditions and were used for experiments at 6-8 weeks of age. Animal experiments were performed according to institutional and national guidelines. BaF3-p210^T315I cells were implanted subcutaneously into the right flank of nude mice (200 μL of a 1 × 10^7cells suspension in serum free medium). When tumors became large enough for caliper measurement, tumor volumes were calculated as (length × width^2) × 0.5. […] At the end of the experiments, tumors were dissected and photographed, and wet weights of each tumor were measured."}, "[3]": {"molecular_target": "T2, recombinant human SET protein in full length (human, UniProt Q01105-2 1-277, labeled with RED fluorescent dye NT-647-NHS)", "T2 construct": "human SET, full length, gene synthesized after GenBank AAA60318.1 and subcloned into pET-21a; also called SET oncoprotein; NT647-labeled SET protein", "T2 sequence (Q01105 other isoform, or with tags, fused parts or gaps)": "as the sequence (Q01105 1-277 isoform Q01105-2) above", "test": "MST; serial dilutions of the peptide (up to 2 mM) mixed with 15 μM NT647-labeled SET protein, 10 min at room temperature, 20 mM PBS pH 8.0, 25 °C, Monolith NT.115 (20% LED, 40% MST power)", "settings": "both partners purified"}}}
{"molecule": "CO[C@H]1/C=C\\C=C(/C)C(=O)NC2=CC(=O)C(NCCN(C)C)=C(C[C@@H](C)C[C@H](OC)[C@H](O)[C@@H](C)/C=C(\\C)[C@@H]1OC(N)=O)C2=O", "note": "[17-DMAG, reference compound]", "values": [{"measurement": "expression level of BCR-ABL", "setting": "BCR-ABL", "result": "significantly degraded"}]}
{"molecule": "Cc1ccc(NC(=O)c2cccc(CN3CCN(CC(=O)O)CC3)c2)cc1Oc1nccc(-c2cccnc2)n1", "note": "[TGI1002-COOH]", "values": [{"measurement": "cytotoxicity compared to the parent compound TGI1002", "setting": "K562 cells", "result": "comparable cytotoxicity"}]}
{"molecule": "Cc1ccc(NC(=O)c2ccc(CN3CCN(C)CC3)cc2)cc1Nc1nccc(-c2cccnc2)n1", "note": "[imatinib, reference compound]", "values": [{"measurement": "Kd value", "setting": "[1]", "result": "did not bind SET to give a meaningful Kd value"}, {"measurement": "median survival", "setting": "BaF3-p210^T315I cells; 10 mg/kg i.p. once daily from day 5", "result": 25, "unit": "days"}]}
{"molecule": "C=C1[C@@H](O)[C@@H]2O[C@]3(CC[C@H](/C=C/[C@@H](C)[C@@H]4CC(C)=C[C@@]5(O[C@H](C[C@@](C)(O)C(=O)O)CC[C@H]5O)O4)O3)CC[C@H]2O[C@@H]1[C@@H](O)C[C@H](C)[C@H]1O[C@@]2(CCCCO2)CC[C@H]1C", "note": "[okadaic acid, reference compound]", "values": [{"measurement": "PP2A activity compared to control", "setting": "PP2A", "result": "decreased significantly"}]}
{"molecule": "Cc1ccc(C(=O)Nc2ccc(CN3CCN(C)CC3)c(C(F)(F)F)c2)cc1C#Cc1cnc2cccnn12", "note": "[ponatinib, reference compound]", "values": [{"measurement": "final tumor volume and weight compared to vehicle group", "setting": "[2]", "result": "markedly lower"}, {"measurement": "median survival", "setting": "BaF3-p210^T315I cells", "result": 37, "unit": "days"}]}
{"molecule": "B1", "values": [{"measurement": "Kd", "setting": "[3]", "result": "4.4 ± 0.39", "unit": "µM"}]}
